Data as given in patent publication EP0103877A1, “Phosphate derivatives, process for preparation thereof and pharmaceutical compositions of the same” (FUJISAWA PHARMACEUTICAL CO., LTD., priority 1982, dated 1984).

System: Fibrosarcoma Meth A
Experiment: Anti-tumor activity against Fibrosarcoma Meth A in mice (mean survival time, T/C)
Assay type: in vivo
Settings: T/C x 100 of mean survival time (medicated vs control group); female BALB/c mice inoculated intrapleurally with 5 x 10^5 Meth A cells; compound injected into pleural cavity, 100 pg/0.05 ml/mouse three times (before 14 days, after 1 hour and after 3 days of tumor implantation)
Experimental: Groups of eight female BALB/c mice, aged 8-9 weeks and weighing 18.0-22.5 g were used.
Fibrosarcoma Meth A (hereinafter referred to as Meth A) was successively transferred every 7 days into BALB/c mice by intraperitoneal inoculation of the ascites cells thereof and the Meth A in the ascites cells as harvested 6 or 7 days after the inoculation was used as tumor cells.
Each of the BALB/c mice was inoculated intrapleurally with 5 x 10^5 Meth A cells in 0.1 ml Hanks solution.
Test compound was dissolved in phosphate buffer saline solution, and was injected into pleural cavity to each of the mice in doses of 100 pg/0.05 ml/mouse three times, i.e. before 14 days, after 1 hour and after 3 days of tumor implantation.
The control group was given with a vehicle alone in the same way.
The antitumor activity of the test compound was estimated by comparing mean survival time of the two groups. • T : Mean survival time of the medicated group • C : Mean survival time of the control group

| SMILES | Anti-tumor activity *a (%) |
| --- | --- |
| CCCCCCCCCCCCCCCCCCO[C@H]1[C@@H](O)[C@H](OC)O[C@@H]1COP(=O)([O-])OCC[N+](C)(C)C [Ex 6-(7), Methyl 3-O-octadecyl-β-D-ribofuranoside 5-(choline phosphate)] | 383 |
| CCCCCCCCCCCCCCCCCCO[C@@H]1[C@@H](OC)[C@@H](OC)O[C@@H]1COP(=O)([O-])OCC[N+](C)(C)C [Ex 4-(3), Methyl 2-0-methyl-3-0-octadecyl-a-D-xylofuranoside 5-(choline phosphate)] | 408 |
| CCCCCCCCCCCCCCCCCCOCC(COP(=O)([O-])OCC[N+](C)(C)C)OC (racemic) [Control Compound, (rac)-1-O-Octadecyl-2-0-methyl-glycerol-3-phosphorylcholine, reference compound] | 302.8 |
